According to ChEMBL document CHEMBL4266060, “Structure-Property Relationship Studies of Influenza A Virus AM2-S31N Proton Channel Blockers” (ACS Med Chem Lett, 2018):

Test system: Matrix protein 2 (Influenza A virus (A/Udorn/307/1972(H3N2))), P0DOF8 [S31N]
Experiment: Inhibition of Influenza A virus AM2 S31N mutant expressed in xenopus laevis frog oocytes assessed as inhibition of channel current at 100 uM after 2 mins by two-electrode voltage clamp assay relative to control
Format: cell-based

Compound	inhibition
OC12CC3CC(C1)CC(NCc1cc(Br)cs1)(C3)C2	56.6%
COc1ccc(-c2ccc(CNC34CC5CC(CC(O)(C5)C3)C4)s2)cn1	68.3%
c1csc(-c2ccc(CNC34CC5CC(CC(C5)C3)C4)s2)c1	86.1%
COC(=O)c1ccc(-c2ccc(CNC34CC5CC(CC(O)(C5)C3)C4)s2)cc1	64.3%
Ic1ccc(CNC23CC4CC(CC(C4)C2)C3)s1	78.5%
COc1ccc(-c2ccc(CNC34CC5CC(CC(O)(C5)C3)C4)s2)cc1OC	37.6%
OC12CC3CC(C1)CC(NCc1nc(Br)cs1)(C3)C2	36%
OC12CC3CC(C1)CC(NCc1csc(Br)c1)(C3)C2	48.3%
OC12CC3CC(C1)CC(NCc1ccc(I)s1)(C3)C2	75.6%
Brc1ccc(CNC23CCC4CC(CC(C4)C2)C3)s1	72.6%
OC12CC3CC(C1)CC(NCc1ccc(Br)s1)(C3)C2	64.7%
CSc1ccccc1-c1ccc(CNC23CC4CC(CC(O)(C4)C2)C3)s1	73.4%
OC12CC3CC(C1)CC(NCc1ccc(-c4ccccc4Cl)s1)(C3)C2	78.7%
OC12CC3CC(C1)CC(NCc1cnc(Br)s1)(C3)C2	33.5%
Brc1ccc(CNC23CC4CC(CC(C4)C2)C3)[se]1	70.6%
OC12CC3CC(C1)CC(NCc1ccc(-c4ccc(F)cc4F)s1)(C3)C2	74.5%
OC12CC3CC(C1)CC(NCc1ccc(-c4ccccc4)s1)(C3)C2	84.6%
COc1ncc(-c2ccc(CNC34CC5CC(CC(O)(C5)C3)C4)s2)cn1	4.4%
